# Experimental data from ChEMBL document CHEMBL6177988, “Design, synthesis, biophysical and biological evaluation of original condensed pyrrolopyrimidine and pyrrolopyridine ligands as anti-SARS-CoV-2 agents targeting G4” (Eur J Med Chem, 2025).
# How the values were obtained:
# [1] = Selectivity index, ratio of CC50 for cytotoxicity against human A549 cells harboring ACE2-CI33 assessed as cell viability by celltiter glo assay to EC50 for antiviral activity against SARS-CoV-2 Wuhan infected in human A549 cells harboring ACE2-Cl33; assay type: toxicity, cell-based; settings: read-out: Ratio CC50/EC50
# SARS-CoV-2 [2] = assay: Antiviral activity against SARS-CoV-2 Wuhan infected in human A549 cells harboring ACE2-Cl33 at 0.1 MOI assessed as inhibition of viral replication pretreated with compounds for 2 hrs followed by infection for 1 hr and measured after 72 hrs post-infection by qRT-PCR analysis; assay type: functional, organism-based; settings: Severe acute respiratory syndrome coronavirus 2, Wuhan
# [3] = Selectivity index, ratio of CC50 for cytotoxicity against human Caco-2 cells harboring ACE2-CI33 assessed as cell viability by celltiter glo assay to EC50 for antiviral activity against SARS-CoV-2 Wuhan infected in human A549 cells harboring ACE2-Cl33; assay type: toxicity, cell-based; settings: read-out: Ratio CC50/EC50
# SARS-CoV-2 [4] = assay: Antiviral activity against SARS-CoV-2 Delta B1.617.2 infected in human A549 cells harboring ACE2-Cl33 at 0.1 MOI assessed as inhibition of viral replication pretreated with compounds for 2 hrs followed by infection for 1 hr and measured after 72 hrs post-infection by qRT-PCR analysis; assay type: functional, organism-based; settings: Severe acute respiratory syndrome coronavirus 2, Delta B1.617.2, A549
# SARS-CoV-2 [5] = assay: Antiviral activity against SARS-CoV-2 Wuhan infected in human Caco-2 cells harboring ACE2-Cl33 at 0.1 MOI assessed as inhibition of viral replication pretreated with compounds for 2 hrs followed by infection for 1 hr and measured after 72 hrs post-infection by qRT-PCR analysis; assay type: functional, organism-based; settings: Severe acute respiratory syndrome coronavirus 2, Wuhan
SMILES,selectivity ratio [1],EC50 (SARS-CoV-2 [2]),further results
CN(C)CCCCNCc1ccc(-c2cc(-c3ccc(CNCCCCN(C)C)cc3)c3ccn(-c4ccccc4)c3n2)cc1,7.38,–,–
CN1CCN(CCCCNCc2ccc(-c3ccc4ccc5ccc(-c6ccc(CNCCCCN7CCN(C)CC7)cc6)nc5c4n3)cc2)CC1,–,> 10000 nM,–
CN(C)CCCCNCc1ccc(-c2nc(-c3ccc(CNCCCCN(C)C)cc3)c3ccn(-c4ccc(CNCCCCN(C)C)cc4)c3n2)cc1,6.67,–,–
CCN(CC)CCCCNCc1ccc(-c2cc3c(ccn3-c3ccccc3)c(-c3ccc(CNCCCCN(CC)CC)cc3)n2)cc1,> 13.9,–,–
CN(C)CCCCNCc1ccc(-c2nc(-c3ccc(CNCCCCN(C)C)cc3)c3ncn(-c4ccccc4)c3n2)cc1,≥ 2.68,–,–
CN1CCN(CCCCNCc2ccc(-c3cc(-c4ccc(CNCCCCN5CCN(C)CC5)cc4)c4ccn(-c5ccccc5)c4c3)cc2)CC1,2.74,–,–
CN(C)CCCCNCc1ccc(-c2nc(-c3ccc(CNCCCCN(C)C)cc3)c3c(ccn3-c3ccccc3)n2)cc1,> 15.1,–,–
CN(C)CCCNCc1ccc(-c2cn(-c3ccc(CNCCCN(C)C)cc3)c3ncnc(-c4ccc(CNCCCN(C)C)cc4)c23)cc1,> 1.43,–,–
CN(C)CCCCCNCc1ccc(-c2cc(-c3ccc(CNCCCCCN(C)C)cc3)c3ccn(-c4ccccc4)c3c2)cc1,2.35,1320 nM,selectivity ratio [3]: 1.88; EC50 (SARS-CoV-2 [4]): 1280 nM; EC50 (SARS-CoV-2 [5]): 946 nM
CN(C)CCCCNCc1ccc(-c2cc3c(ccn3-c3ccccc3)c(-c3ccc(CNCCCCN(C)C)cc3)n2)cc1,2.18,–,–
CN(C)CCCNCc1ccc(-c2nc(-c3ccc(CNCCCN(C)C)cc3)c3ccn(-c4ccc(CNCCCN(C)C)cc4)c3n2)cc1,> 14.6,436 nM,selectivity ratio [3]: ≥ 4.57; EC50 (SARS-CoV-2 [5]): 1540 nM
CN(C)CCCCCNCc1ccc(-c2cc3c(ccn3-c3ccccc3)c(-c3ccc(CNCCCCCN(C)C)cc3)n2)cc1,8.18,–,–
CN(C)CCCCNCc1ccc(-c2cn(-c3ccccc3)c3ncnc(-c4ccc(CNCCCCN(C)C)cc4)c23)cc1,> 9.3,–,–
CN(C)CCCCNCc1ccc(-c2ccc3ccc4ccc(-c5ccc(CNCCCCN(C)C)cc5)nc4c3n2)cc1,> 1.09,9170 nM,–
CN(C)CCCCNCc1ccc(-c2cc(-c3ccc(CNCCCCN(C)C)cc3)c3ccn(-c4ccccc4)c3c2)cc1,1.88,528 nM,selectivity ratio [3]: 0.93; EC50 (SARS-CoV-2 [4]): 681 nM; EC50 (SARS-CoV-2 [5]): 787 nM
CCC(CC)COC(=O)[C@H](C)N[P@](=O)(OC[C@H]1O[C@@](C#N)(c2ccc3c(N)ncnn23)[C@H](O)[C@@H]1O)Oc1ccccc1 [REMDESIVIR],> 1.18,–,–
O=c1c(O)cc([C@H]2Oc3cc(O)cc(O)c3C[C@H]2O)cc2c([C@H]3Oc4cc(O)cc(O)c4C[C@H]3O)cc(O)c(O)c12 [THEAFLAVIN],> 83.3,–,–
CN(C)CCCCNCc1ccc(-c2nc(-c3ccccc3)c3ccn(-c4ccc(CNCCCCN(C)C)cc4)c3n2)cc1,2.64,920 nM,–
